# US9428759B2, “Methods for increasing the production of phenolic compounds from Theobroma cacao” (Casa Luker S.A., priority 2012, dated 2016)
# Test system: cocoa callus
# Assay: Induction of cocoa callus development with 2,4-D and chitosan
# Assay type: cell-based, Theobroma cacao
# Source text: After surface sterilization, seeds (grains) were subjected to induction of calluses in specific media for tissue cultures as follows (see Murashige, T. and Skoog, F. “A revised medium for rapid growth and bioassays with tobacco tissue cultures,” Physiologia Plantarum, 1962, Vol 15: 473-495). Disinfected cocoa seeds were submitted to extraction of embryonic cells under aseptic conditions, and transferred to growth medium (MS), which contains mineral salts and microelements, and which is enriched with myo-inositol (100 mg/L) and sucrose (30 g/L), with gellan gum (2.4 g/L) as a gelling agent. The cocoa explants were incubated under dark conditions for 7 days at 22-24° C. After the incubation period, the cocoa embryonic cells were subcultured in nutrient media with the same types of ingredients as the media mentioned above, but containing different concentrations of auxins (growth hormones 2,4-D), using […] (0, 0.1, 0.5, 1.0 and 2.0 mg/L). […]
# Different concentrations including 0, 0.1, 0.2, 0.5, 1, 2, 4, mg/L of kinetin were evaluated. Also, kinetin was used with or without 2,4-D at concentration of 2 mg/L. The growth of calluses was evaluated after 100 days, and different parameters were used to determine the effects of the growth regulators on callus growth including % of disaggregation and height and diameter of the callus. […]
structure (smiles),measurement,setting,value
"O=C(O)COc1ccc(Cl)cc1Cl [2,4 D, 2,4-dichlorophenoxyacetic acid]",growth in cocoa calluses,"2 mg/L, all three cocoa phenotypes, early stages of development",induced larger growth
same,% of Callus Development,"2,4-D 2 mgL^−1, initial callus development, three cocoa phenotypes",22.9167%
